Data set [1] can be described thus: physchem. The conditions noted are these: pH 7.4 buffer.
A short description of data set [2]: physchem. The conditions noted are these: octan-1-ol/water, pH 7.4, LogD7.4.

Values after ≈ are worked out from the molar mass of the structure shown.

Usually thermodynamic solubility stands for solubility found after equilibrating the solid with the medium. For orientation: logD means lipophilicity at a set pH, counting ionised and neutral species. Lower therefore signals a more hydrophilic compound. The molecule `CCn1c(=O)c2[nH]c(-c3ccccc3)nc2n(CC)c1=O` returned a solubility (thermodynamic) in “physchem [1]” of 2.1 µM (≈ 0.597 µg/mL). The same molecule gave a logD in the data set “physchem [2]” of 3.3.
For `CCn1c2ccccc2c2cc(NC(=O)N3CCOCC3)ccc21` the same measures were 2.9 µM (≈ 0.938 µg/mL) and 3.2.
As to `Nc1ncc(-c2cnn(C3CCN(C(=O)CO)CC3)c2)cc1-c1nc2ccccc2o1`, the solubility (thermodynamic) in the data set “physchem [1]” amounted to 2 µM (≈ 0.837 µg/mL). For the same molecule, the logD in the data set “physchem [2]” stood at 3.2.
The like results for `CS(=O)(=O)c1cccc(Nc2nccc(N(CC#N)c3c(Cl)ccc4c3OCO4)n2)c1` were, in that order, 1.3 µM (≈ 0.595 µg/mL) and 3.16.
The molecule `CN(c1ccnc(Nc2cccc(S(C)(=O)=O)c2)n1)c1cccc2[nH]ncc12` gave a thermodynamic solubility in “physchem [1]” of 13.5 µM (≈ 5.33 µg/mL). The logD in the data set “physchem [2]” was 3.21.
The like results for `CSCc1cc(N2CCOCC2)nc(-c2ccccc2)n1` were, in that order, 55 µM (≈ 16.6 µg/mL) and 3.26.
Take `O=C(c1scc2c1CCCC2)N1CCCCC1`: the thermodynamic solubility in the data set “physchem [1]” worked out at 871 µM (≈ 217 µg/mL). The logD in “physchem [2]” stood at 3.16.
On to `FC(F)(F)c1nnc2ccc(N3CCCCCC3)nn12`, for which the solubility (thermodynamic) in “physchem [1]” amounted to 132 µM (≈ 37.6 µg/mL). The molecule further came in with a logD in the data set “physchem [2]” of 3.29.
The like results for `O=C(c1ccc(F)cc1)C1CCN(C(=O)NCc2ccccc2)CC1` were, in that order, 10 µM (≈ 3.4 µg/mL) and 3.15.
For `O=C(Cn1cnc2ccccc21)c1ccc(Br)cc1`, in the data set “physchem [1]”, the solubility (thermodynamic) stood at 129 µM (≈ 40.6 µg/mL). The same molecule came in with a logD in “physchem [2]” of 3.22.
For `COc1ccc(C)c(N(C)c2ccnc(Nc3cc(N4CCOCC4)cc(N4CCOCC4)c3)n2)c1` the same measures were 11.5 µM (≈ 5.64 µg/mL) and 3.18.
`COc1cc(N2CCN(CCO)CC2)ccc1Nc1ncc(Cl)c(-c2cnc3ccccn23)n1` showed a thermodynamic solubility in “physchem [1]” of 66.1 µM (≈ 31.7 µg/mL). Besides, the logD in “physchem [2]” was 3.2.
For `COc1cc(N2CCN(C(C)=O)CC2)ccc1Nc1ncc(OC)c(-c2cnc3ccccn23)n1` the same measures were 1.3 µM (≈ 0.616 µg/mL) and 3.2.
In “physchem [1]”, `COc1cc(N2CCN(C(C)=O)CC2)ccc1Nc1ncc(Cl)c(-c2cnc3c(CO)cccn23)n1` came in with a thermodynamic solubility of 0.5 µM (≈ 0.254 µg/mL). Besides, the logD in the data set “physchem [2]” is 3.1.
In the case of `COc1cc(N2CCN(C(C)=O)CC2)ccc1Nc1ncc(Cl)c(-c2cnc3cc(CO)ccn23)n1`, in “physchem [1]”, the solubility (thermodynamic) was determined as 22.9 µM (≈ 11.6 µg/mL). For the same molecule, the logD in the data set “physchem [2]” was determined as 3.1.
Consider `CN(C(=O)C1CCC1)C1CCN(CCC(c2ccccc2)c2ccccc2)CC1`, for which the thermodynamic solubility in the data set “physchem [1]” was 282 µM (≈ 110 µg/mL). Besides, the logD in “physchem [2]” is 3.2.
In the data set “physchem [1]”, `CCOC(=O)c1ccc(OCCC2CN(c3ccc(C)nn3)C2)cc1` yielded a solubility (thermodynamic) of 347 µM (≈ 118 µg/mL). The molecule further returned a logD in the data set “physchem [2]” of 3.22.
The like results for `CCOC(=O)c1ccc(OCC2CN(c3ccc(C)nn3)C2)cc1` were, in that order, 141 µM (≈ 46.3 µg/mL) and 3.1.
For `COc1cc2ncnc(Nc3cc(NC(=O)c4ccnc(N5CCOCC5)c4)ccc3C)c2cc1OCCN1CCOCC1` the same measures were 66.1 µM (≈ 39.6 µg/mL) and 3.19.
The molecule `Cc1ccc(NC(=O)c2cccc(N3CCOCC3)c2)cc1NC(=O)c1ccc(OCc2ccncc2)cc1` gave a solubility (thermodynamic) in “physchem [1]” of 0.5 µM (≈ 0.261 µg/mL). In “physchem [2]”, this molecule yielded a logD of 3.2.
The like results for `CCOc1cc2nccc(Oc3cnc(CC(=O)Nc4n[nH]c(CC)c4C)c(OC)c3)c2cc1OC` were, in that order, 2.2 µM (≈ 1.08 µg/mL) and 3.29.
As for `COc1ccc(NC(=O)c2nnc(Nc3ccccc3F)o2)cn1`, the thermodynamic solubility in “physchem [1]” was 3.3 µM (≈ 1.09 µg/mL). Further, the pH-dependent lipophilicity (logD) in “physchem [2]” is 3.2.
For `O=C(Nc1ccc(N2CCOCC2)cc1)c1nnc(NC(=O)C2(c3ccc(Cl)cc3)CCC2)o1` the same measures were 66.1 µM (≈ 31.9 µg/mL) and 3.2.
The like results for `O=C(Nc1ccc(N2CCOCC2)cc1)c1nnc(Nc2ccccc2)o1` were, in that order, 1.7 µM (≈ 0.621 µg/mL) and 3.15.
Turning to `O=C1COC2(CCN(S(=O)(=O)c3ccc(-c4ccc5cccnc5c4)cc3)CC2)CN1C1CC1`, the solubility (thermodynamic) in the data set “physchem [1]” came to 1.9 µM (≈ 0.907 µg/mL). For the same molecule, the logD in the data set “physchem [2]” came out at 3.24.
For `CCCSc1nc(NC)ccc1C(=O)N[C@H]1C2CC3CC1C[C@](O)(C3)C2` the same measures were 46.8 µM (≈ 17.6 µg/mL) and 3.27.
On to `CCCSc1nc(N2CCOCC2)ccc1C(=O)N[C@H]1C2CC3CC1C[C@](O)(C3)C2`, for which, in “physchem [1]”, the solubility (thermodynamic) worked out at 479 µM (≈ 207 µg/mL). Also, the logD in the data set “physchem [2]” came out at 3.2.
The like results for `C[C@H](NC1=NC(=O)[C@@](C)(C(F)(F)F)S1)c1ccccc1F` were, in that order, 219 µM (≈ 70.1 µg/mL) and 3.1.
For `COc1cc2ncnc(Nc3ccc(Cl)c(O)c3)c2cc1OC`, the thermodynamic solubility in the data set “physchem [1]” amounted to 1.4 µM (≈ 0.464 µg/mL). In the data set “physchem [2]”, this molecule showed a logD of 3.3.
For the molecule `CN1CCN([C@H]2C[C@@H](c3nc(-c4ccc5ccc(-c6ccccc6)nc5c4)c4c(N)nccn43)C2)CC1`, the solubility (thermodynamic) in the data set “physchem [1]” was found to be 204 µM (≈ 100 µg/mL). The logD in the data set “physchem [2]” was found to be 3.2.
The like results for `C[C@H](CN(C)C(=O)CO)Oc1cccc2ncnc(Nc3ccc(OCc4ccccn4)c(Cl)c3)c12` were, in that order, 12.6 µM (≈ 6.4 µg/mL) and 3.22.
The like results for `COc1cc2ncnc(Nc3ccc(F)c(Cl)c3)c2cc1OCCCN1CCCCC1` were, in that order, 20 µM (≈ 8.9 µg/mL) and 3.3.
For `CCn1c2ccccc2c2cc(NC(=O)CN(C)C)ccc21` the same measures were 219 µM (≈ 64.6 µg/mL) and 3.2.
In the case of `O=c1cc(-c2ccc(O)cc2)oc2cc(O)ccc12`, in “physchem [1]”, the solubility (thermodynamic) was determined as 2.3 µM (≈ 0.585 µg/mL). Besides, the logD in “physchem [2]” is 3.2.
For `CCN(CC)C(=O)c1ccc2[nH]c(-c3cc(C)cc(C)c3)c(CCNCCCCc3ccncc3)c2c1` the same measures were 871 µM (≈ 433 µg/mL) and 3.3.
The like results for `COc1cc2ncnc(Nc3ccc(F)c(Cl)c3)c2cc1OCCN1CCN(C)CC1` were, in that order, 64.6 µM (≈ 28.8 µg/mL) and 3.3.
With `COc1cc2ncnc(NCc3ccccc3)c2cc1OC`, the solubility (thermodynamic) in “physchem [1]” worked out at 38.9 µM (≈ 11.5 µg/mL). Besides, the logD in “physchem [2]” turned out to be 3.29.
The molecule `C[C@H](NC1=NC(=O)[C@](C)(C(F)(F)F)S1)c1ccccc1F` yielded a thermodynamic solubility in “physchem [1]” of 87.1 µM (≈ 27.9 µg/mL). Moreover, the logD in the data set “physchem [2]” worked out at 3.1.
As to `Cn1c(C#N)ccc1-c1cc(F)c2c(c1)C(C)(C)C(=O)N2`, the thermodynamic solubility in the data set “physchem [1]” was determined as 5.4 µM (≈ 1.53 µg/mL). The same molecule registered a logD in “physchem [2]” of 3.21.
As for `CN1CCC(Oc2cccc3ncnc(Nc4ccc(OCc5cnccn5)c(Cl)c4)c23)CC1`, the thermodynamic solubility in “physchem [1]” came to 12.3 µM (≈ 5.87 µg/mL). For the same molecule, the logD in “physchem [2]” came out at 3.21.
`CC(C)C[C@H](N[C@@H](c1ccc(-c2ccc(S(C)(=O)=O)cc2)cc1)C(F)(F)F)C(=O)NCC#N` showed a thermodynamic solubility in the data set “physchem [1]” of 4 µM (≈ 1.93 µg/mL). In the data set “physchem [2]”, this molecule registered a logD of 3.24.
Take `CC(=O)OCCn1c(Sc2nc3cccc(Cl)c3s2)nc2c(N)ncnc21`: the solubility (thermodynamic) in the data set “physchem [1]” was 4 µM (≈ 1.68 µg/mL). In addition, the logD in the data set “physchem [2]” stood at 3.16.
With `C[C@H](NC1=NC(=O)C(C)(C(F)(F)F)S1)c1ccccc1F` (some centres undefined), the thermodynamic solubility in “physchem [1]” amounted to 339 µM (≈ 109 µg/mL). The logD in “physchem [2]” was found to be 3.1.
For `Clc1ccc2c(c1Nc1ccnc(Nc3cc(N4CCOCC4)cc(N4CCOCC4)c3)n1)OCO2` the same measures were 30.9 µM (≈ 15.8 µg/mL) and 3.25.
For `CNC(=O)c1cc(-c2ccccc2)sc1NC(N)=O` the same measures were 12 µM (≈ 3.3 µg/mL) and 3.19.
The like results for `O=C(Nc1ncc(F)s1)[C@H](CC1CCOCC1)c1ccc(S(=O)(=O)C2CC2)cc1` were, in that order, 214 µM (≈ 93.8 µg/mL) and 3.19.
In turn, `COc1cc(Nc2cc(Oc3ccc(C)nc3)ccn2)cc(OC)c1OC` showed a thermodynamic solubility in the data set “physchem [1]” of 31.6 µM (≈ 11.6 µg/mL). Further, the logD in “physchem [2]” came to 3.21.
